Reference: ChEMBL document CHEMBL5506015, “Discovery of a Meisoindigo-Derived PROTAC as the ATM Degrader: Revolutionizing Colorectal Cancer Therapy via Synthetic Lethality with ATR Inhibitors” (J Med Chem, 2024)
Calls of active or inactive are those of the source.

Tests used:
[1] = Cytotoxicity against human HIEC-6 cells assessed as reduction in cell viability incubated for 48 hrs by MTT assay; type: toxicity, cell-based
[2] = system: SW-620; test: Downregulation of BCL2 level in human SW620 cells at 1.25 to 10 uM measured after 12 hrs by immunoblot analysis; type: functional, cell-based; details: dose 1.25-10 µM
[3] = system: NCI-H358; test: Cytotoxicity against human NCI-H358 cells assessed as reduction in cell viability incubated for 48 hrs by MTT assay; details: NCI-H358, 48 h
[4] = system: HCT-116; test: Cytotoxicity against human HCT-116 cells assessed as reduction in cell viability incubated for 48 hrs by MTT assay; details: HCT-116, 48 h
[5] = system: COLO 205; test: Cytotoxicity against human COLO 205 cells assessed as reduction in cell viability incubated for 48 hrs by MTT assay; details: COLO 205, 48 h
[6] = system: SW-620; test: Induction of apoptosis in human SW620 cells measured after 12 hrs by Annexin V-FITC/propidium iodide staining-based flow cytometric analysis; type: functional, cell-based; details: dose 5-10 µM
[7] = system: SW480; test: Downregulation of BCL2 level in human SW480 cells at 1.25 to 10 uM measured after 12 hrs by immunoblot analysis; type: functional, cell-based; details: dose 1.25-10 µM
[8] = system: SW480; test: Upregulation of cleaved caspase 3 level in human SW480 cells at 1.25 to 10 uM measured after 12 hrs by immunoblot analysis; type: functional, cell-based; details: dose 1.25-10 µM
[9] = system: K562; test: Upregulation of cleaved caspase 3 level in human K562 cells at 5 to 20 uM measured after 8 hrs by immunoblot analysis; type: functional, cell-based; details: dose 5-20 µM
[10] = system: SW-620; test: Downregulation of KDM4B level in human SW620 cells at 10 uM measured after 12 hrs in presence of tert-butyl ((S)-1-((2S,4R)-4-hydroxy-2-((4-(4-methylthiazol-5-yl)benzyl)carbamoyl)pyrrolidin-1-yl)-3,3-dimethyl-1-oxobutan-2-yl)carbamate by immunoblot analysis; type: functional, cell-based
[11] = system: SW-620; test: Downregulation of PROX1 level in human SW620 cells at 10 uM measured after 12 hrs in presence of tert-butyl ((S)-1-((2S,4R)-4-hydroxy-2-((4-(4-methylthiazol-5-yl)benzyl)carbamoyl)pyrrolidin-1-yl)-3,3-dimethyl-1-oxobutan-2-yl)carbamate by immunoblot analysis; type: functional, cell-based
[12] = system: SW-620; test: Induction of cell cycle arrest in human SW620 cells assessed as accumulation of cells at G0/G1 phase incubated for 12 hrs by flow cytometry based analysis; type: functional; details: dose 5-10 µM
[13] = Downregulation of ATM level in human SW620 cells transfected with ATM shRNA by immunoblot analysis; type: functional, SW-620
[14] = Downregulation of ATM level in human SW480 cells transfected with ATM shRNA by immunoblot analysis; type: functional
[15] = system: SW-620; test: Cytotoxicity against human SW620 cells transfected with ATM shRNA assessed as reduction in cell viability measured after 48 hrs by MTT assay; details: SW-620, 48 h
[16] = system: SW480; test: Cytotoxicity against human SW480 cells transfected with NC shRNA assessed as reduction in cell viability measured after 48 hrs by MTT assay; details: SW480, 48 h
[17] = system: HCT-116; test: Cytotoxicity against human HCT-116 cells transfected with NC shRNA assessed as reduction in cell viability measured after 48 hrs by MTT assay; details: HCT-116, 48 h
[18] = system: HCT-116; test: Cytotoxicity against human HCT-116 cells transfected with ATM shRNA assessed as reduction in cell viability measured after 48 hrs by MTT assay; details: HCT-116, 48 h
[19] = system: SW-620; test: Induction of DNA damage in human SW620 cells assessed as gamma-H2AX accumulation at 10 uM by immunoblot analysis; type: functional, cell-based; details: time <= 24.0 hrs, TDE = time-dependent effect
[20] = system: K562; test: Induction of DNA damage in human K562 cells assessed as gamma-H2AX accumulation at 20 uM by immunoblot analysis; type: functional, cell-based; details: time <= 12.0 hrs, TDE = time-dependent effect
[21] = system: SW-620; test: Induction of DNA damage in human SW620 cells assessed as gamma-H2AX accumulation incubated for 12 hrs by immunoblot analysis; type: functional, cell-based; details: dose 2.5-10 µM
[22] = system: K562; test: Induction of DNA damage in human K562 cells assessed as gamma-H2AX accumulation at 20 uM incubated for 8 hrs by immunoblot analysis; type: functional, cell-based
[23] = system: SW-620; test: Potentiation of AZD6738 induced DNA damage in human SW620 cells assessed as gamma-H2AX accumulation in nuclei at 5 uM incubated for 12 hrs by immunohistochemical staining based analysis; type: functional, cell-based
[24] = system: SW480; test: Potentiation of AZD6738 induced DNA damage in human SW480 cells assessed as gamma-H2AX accumulation in nuclei at 5 uM incubated for 12 hrs by immunohistochemical staining based analysis; type: functional, cell-based
[25] = system: K562; test: Potentiation of AZD6738 induced DNA damage in human K562 cells assessed as gamma-H2AX accumulation in nuclei at 5 uM incubated for 12 hrs by immunohistochemical staining based analysis; type: functional, cell-based
[26] = system: SW-620; test: Antitumor activity against human SW620 cells xenografted in Balb/c nude mouse model assessed as reduction in tumor load at 15 mg/kg/day administered for 14 days in presence of AZD6738 by vernier caliper based analysis; type: functional, organism-based; details: time 14.0 day
[27] = Toxicity in Balb/c nude mouse assessed as effect on body weight loss at 15 mg/kg/day administered for 14 days in presence of AZD6738 […]; type: organism-based; details: in vivo, 336 h, time 14 day
[28] = Toxicity in Balb/c nude mouse assessed as drug tolerance at 15 mg/kg/day administered for 14 days; type: organism-based; details: in vivo, 336 h, time 14 day
[29] = Toxicity in Balb/c nude mouse assessed as drug tolerance at 15 mg/kg/day administered for 14 days in presence of AZD6738; type: organism-based; details: in vivo, 336 h, time 14 day
[30] = system: SW-620; test: Antitumor activity against human SW620 cells xenografted in Balb/c nude mouse model assessed as decrease in ATM protein level at 15 mg/kg/day measured after 14 days by Western blot analysis; type: functional, organism-based; details: time 14.0 day
[31] = system: SW-620; test: Antitumor activity against human SW620 cells xenografted in Balb/c nude mouse model assessed as decrease in BCL2 protein level at 15 mg/kg/day measured after 14 days by Western blot analysis; type: functional, organism-based; details: time 14.0 day
[32] = system: SW-620; test: Antitumor activity against human SW620 cells xenografted in Balb/c nude mouse model assessed as increase in cleaved-caspase 3 level at 15 mg/kg/day measured after 14 days by Western blot analysis; type: functional, organism-based; details: time 14.0 day
[33] = system: SW-620; test: Antitumor activity against human SW620 cells xenografted in Balb/c nude mouse model assessed as necrosis at 15 mg/kg/day measured after 14 days by H and E staining based analysis; type: functional, organism-based; details: time 14.0 day
[34] = system: SW-620; test: Antitumor activity against human SW620 cells xenografted in Balb/c nude mouse model assessed as inflammatory cell infiltration at 15 mg/kg/day measured after 14 days by H and E staining based analysis; type: functional, organism-based; details: time 14.0 day
[35] = system: SW-620; test: Antitumor activity against human SW620 cells xenografted in Balb/c nude mouse model assessed as fibrosis at 15 mg/kg/day measured after 14 days by H and E staining based analysis; type: functional, organism-based; details: time 14.0 day
[36] = system: SW-620; test: Downregulation of ATM level in human SW620 cells at 10 uM by immunoblot analysis; type: functional, cell-based; details: time <= 24.0 hrs, TDE = time-dependent effect
[37] = system: SW480; test: Downregulation of ATM level in human SW480 cells at 10 uM by immunoblot analysis; type: functional, cell-based; details: time <= 12.0 hrs, TDE = time-dependent effect
[38] = system: SW-620; test: Downregulation of ATM level in human SW620 cells measured after 12 hrs by immunoblot analysis; type: functional, cell-based; details: dose 2.5-10 µM

Cc1ncsc1-c1ccc(CNC(=O)[C@@H]2C[C@@H](O)CN2C(=O)[C@@H](NC(=O)CCCCCn2cc(CCCN3C(=O)/C(=C4/C(=O)Nc5ccccc54)c4ccccc43)nn2)C(C)(C)C)cc1
Non-Toxic: Activity [27] | Activity [28] | Activity [29]
Dose-Dependent Effect: Activity ([1]; hiec-6, 48 h, dose 0.01-50 µM, time 48 hrs)
25%: Activity [13]
> 20 µM: IC50 [3]
5.11 µM: IC50 [5]
2.59 µM: IC50 [16]
23.9 µM: IC50 at 48 h ([1]; HIEC-6 cells)
5.82 µM: IC50 [4] | IC50 [17]
active: Activity [2] | Activity [6] Dose-Dependent Effect | Activity [7] | Activity [8] | Activity [9] | Activity [10] | Activity [11] | Activity [12] Dose-Dependent Effect | Activity [19] Tde | Activity [20] Tde | Activity [21] Dose-Dependent Effect | Activity [22] | Activity [23] | Activity [24] | Activity [25] | Activity [26] | Activity [30] | Activity [31] | Activity [32] | Activity [33] | Activity [34] | Activity [35] | Activity [36] Tde | Activity [37] Tde | Activity [38] Dose-Dependent Effect
23%: Activity [14]
26.4 µM: IC50 [18]
9.81 µM: IC50 [15]
